For 20 compounds, CC50 and EC50 results are on record in patent US11639350B2, “Heteroaryldihydropyrimidine derivatives and methods of treating hepatitis B infections” (Janssen Pharmaceutica NV, priority 2018, dated 2023).

The nature of data set [1]: Cytotoxicity determination in HepG2.2.15 cells (CCK-8). It counts as cell-based. Conditions: human, 6 days of compound treatment, CCK-8, highest concentration 100 μM. As for the experimental part: (§1) HBV replication inhibition by the compounds of this invention as well as cytotoxicity determination was determined in cells infected or transfected with HBV, or cells with stably integrated HBV, such as HepG2.2.15 cells (Sells et al. 1987). The method used herein is as follows.
(§2) The HepG2.2.15 cells were seeded into 96-well plate in 2% FBS (Fetal bovine serum) culture medium at the density of 40,000 cells/well and 5,000 cells/well for HBV inhibitory activity and cytotoxicity determination, respectively. After seeding, the cell plates were incubated at 37° C., 5% CO2 overnight. The next day, medium containing compounds were added to treat the cells for 6 days with medium refreshed once in the middle of the treatment. Eight dose points with 3 folds dilution of each compound were adopted and the highest concentration of the compounds was 10 μM and 100 μM for HBV inhibitory activity and cytotoxicity determination, respectively.
After 6 days of compounds treatment, 20 μl CCK-8 (Cell Counting Kit-8 (Tianjin Biolite company)) reagents were added to each well of cytotoxicity assay plates, the plate was incubated at 37° C., 5% CO2 for 2.5 hours and the absorbance at 450 nm wavelength was measured, at the same time the absorbance at 630 nm wavelength was read as reference.
(§3) EC50 and CC50 values are calculated by the GraphPad Prism software and are averages where multiple measurements were made. EC50 values for the other exemplified compounds were either not measured or higher than 1 μM.

The next data set concerns HBV. Briefly: HBV inhibitory activity: HBV DNA in the culture medium of HepG2.2.15 cells by q-PCR. The following applies: Hepatitis B virus, HepG2.2.15, 144 h, HepG2.2.15 cells, 6 days of compound treatment, HBV DNA in culture medium by q-PCR, highest concentration 10 μM; read-out: EC50. It counts as cell-based. As for the experimental part:
as §1, §2
The HBV DAN change in the cell culture medium induced by the compounds was measured by q-PCR (quantitative polymerase chain reaction) method. The HBV DNA in the culture medium was extracted using QIAamp 96 DNA Blood Kit according to the manual and then quantified by q-PCR using the primers and probe in the table below: […]
as §3

As to `COC(=O)C1=C(C2COC2)NC(c2nccs2)=NC1c1ccc(F)cc1Cl` (racemic) [Compound 217, Methyl 4-(2-chloro-4-fluorophenyl)-6-(oxetan-3-yl)-2-(thiazol-2-yl)-1,4-dihydropyrimidine-5-carboxylate], the CC50 at 6 days in data set [1] is 29600 nM. In the data set on HBV, the EC50 stood at 511 nM. The matching figures for `COC(=O)C1=C([C@H]2CC[C@@H](NS(C)(=O)=O)CC2)NC(c2ncc(F)cc2F)=NC1c1ccc(F)cc1Cl` (mixture of isomers) [Compound 399, (cis)-Methyl 4-(2-chloro-4-fluorophenyl)-2-(3,5-difluoropyridin-2-yl)-6-(4-(methylsulfonamido)cyclohexyl)-1,4-dihydropyrimidine-5-carboxylate]: 36800 nM and 33 nM.

`CCOC(=O)C1=C([C@H]2C[C@@H](NS(C)(=O)=O)C2(C)C)NC(c2nccs2)=NC1c1ccc(F)cc1Cl` (mixture of isomers) [Compound 437, (cis)-Ethyl 4-(2-chloro-4-fluorophenyl)-6-(2,2-dimethyl-3-(methylsulfonamido)cyclobutyl)-2-(thiazol-2-yl)-1,4-dihydropyrimidine-5-carboxylate] came in with a 50% cytotoxic concentration (CC50) at 6 days in data set [1] of 4000 nM. Also, in the data set on HBV, the EC50 came out at 404 nM. `CCOC(=O)C1=C([C@H]2CC[C@H](C(=O)OC)CC2)NC(c2nccs2)=NC1c1cccc(F)c1Cl` (relative stereo) [Compound 22Y, Ethyl 4-(2-chloro-3-fluorophenyl)-6-(trans-4-(methoxycarbonyl)-cyclohexyl)-2-(thiazol-2-yl)-1,4-dihydropyrimidine-5-carboxylate]: the cytotoxic concentration (CC50) at 6 days in data set [1] is 75900 nM. In addition, in the data set on HBV, the half-maximal effective concentration (EC50) came out at 224 nM.

`CCOC(=O)C[C@H]1CC[C@H](C2=C(C(=O)OC)C(c3cccc(F)c3Cl)N=C(c3nccs3)N2)CC1` (relative stereo) [Compound 28, Methyl 4-(2-chloro-3-fluorophenyl)-6-(trans-4-(2-ethoxy-2-oxoethyl)-cyclohexyl)-2-(thiazol-2-yl)-1,4-dihydropyrimidine-5-carboxylate] yielded a half-maximal cytotoxic concentration (CC50) at 6 days in data set [1] of 49300 nM. Moreover, the EC50 in the data set with HBV was determined as 407 nM. The compound `COC(=O)C1=C([C@H]2CC[C@H](CC(=O)O)CC2)NC(c2nccs2)=NC1c1cccc(F)c1Cl` (relative stereo) [Compound 29, 2-(trans-4-(6-(2-Chloro-3-fluorophenyl)-5-(methoxycarbonyl)-2-(thiazol-2-yl)-3,6-dihydropyrimidin-4-yl)cyclohexyl)acetic Acid] yielded a CC50 at 6 days in data set [1] of 33600 nM. The 50% effective concentration (EC50) in the data set with HBV was found to be 123 nM. Take `COC(=O)C1=C([C@H]2CC[C@@H](N(CC(=O)O)S(C)(=O)=O)CC2)NC(c2nccs2)=NC1c1ccc(F)cc1Cl` (relative stereo) [Compound 135, 2-(N-(cis-4-(6-(2-chloro-4-fluorophenyl)-5-(methoxycarbonyl)-2-(thiazol-2-yl)-3,6-dihydropyrimidin-4-yl)cyclohexyl)methylsulfonamido)acetic Acid]: the 50% cytotoxic concentration (CC50) at 6 days in data set [1] was found to be 62500 nM. Further, the EC50 in the data set with HBV was 346 nM. Take `COC(=O)C1=C([C@H]2CC[C@H](N(CC(=O)O)S(C)(=O)=O)CC2)NC(c2nccs2)=NC1c1ccc(F)cc1Cl` (relative stereo) [Compound 139, 2-(N-(trans-4-(6-(2-chloro-4-fluorophenyl)-5-(methoxycarbonyl)-2-(thiazol-2-yl)-3,6-dihydropyrimidin-4-yl)cyclohexyl)methylsulfonamido)acetic Acid]: the CC50 at 6 days in data set [1] came out at 75600 nM. In addition, in the data set on HBV, the EC50 stood at 112 nM. Regarding `COC(=O)C1=C(C2CCN(S(=O)(=O)[C@H]3C[C@H](C(=O)O)C3)CC2)NC(c2nccs2)=NC1c1ccc(F)c(F)c1Br` (relative stereo) [Compound 162, trans-3-((4-(−6-(2-Bromo-3,4-difluorophenyl)-5-(methoxycarbonyl)-2-(thiazol-2-yl)-3,6-dihydropyrimidin-4-yl)piperidin-1-yl)sulfonyl)cyclobutanecarboxylic Acid], the CC50 at 6 days in data set [1] was determined as 34500 nM. In addition, in the data set on HBV, the EC50 is 59 nM.

`COC(=O)C1=C([C@H]2C[C@@H](C)CO2)NC(c2nccs2)=NC1c1cccc(F)c1Cl` (relative stereo) [Compound 171, (cis)-Methyl 4-(2-chloro-3-fluorophenyl)-6-(4-methyltetrahydrofuran-2-yl)-2-(thiazol-2-yl)-1,4-dihydropyrimidine-5-carboxylate] came in with a CC50 at 6 days in data set [1] of 15500 nM. Besides, the EC50 in the data set with HBV turned out to be 124 nM.

In the case of `COC(=O)C1=C([C@H]2CC[C@H](NS(=O)(=O)CCO)CC2)NC(c2nccs2)=NC1c1ccc(F)cc1Cl` (relative stereo) [Compound 187B, (trans)-Methyl 4-(2-chloro-4-fluorophenyl)-6-(4-(2-hydroxyethylsulfonamido)cyclohexyl)-2-(thiazol-2-yl)-1,4-dihydropyrimidine-5-carboxylate], the CC50 at 6 days in data set [1] was 18900 nM. Besides, the EC50 with HBV amounted to 32 nM. Regarding `COC(=O)C1=C([C@H]2C[C@@H](CO)CO2)NC(c2nccs2)=NC1c1cccc(F)c1Cl` (relative stereo) [Compound 221, (cis)-Methyl 4-(2-chloro-3-fluorophenyl)-6-(4-(hydroxymethyl)tetrahydrofuran-2-yl)-2-(thiazol-2-yl)-1,4-dihydropyrimidine-5-carboxylate], half-maximal cytotoxicity in data set [1] (CC50 at 6 days) was put at 47100 nM. Further, the EC50 with HBV came out at 53 nM. Take `COC(=O)C1=C([C@H]2CC[C@H](C(=O)OC)CC2)NC(c2nccs2)=NC1c1ccc(F)cc1Br` (relative stereo) [Compound 224, (trans)-Methyl 4-(2-bromo-4-fluorophenyl)-6-(4-(methoxycarbonyl)cyclohexyl)-2-(thiazol-2-yl)-1,4-dihydropyrimidine-5-carboxylate]: in data set [1], the cytotoxic concentration (CC50) at 6 days was found to be 28400 nM. Besides, in the data set with HBV, the concentration giving a half-maximal response (EC50) stood at 71 nM.

In the case of `COC(=O)C1=C(C2CCN(S(=O)(=O)[C@H]3C[C@@H](C(=O)O)C3)CC2)NC(c2nccs2)=NC1c1ccc(F)c(F)c1Cl` (relative stereo) [Compound 232D, (cis)-3-((4-(−6-(2-Chloro-3,4-difluorophenyl)-5-(methoxycarbonyl)-2-(thiazol-2-yl)-3,6-dihydropyrimidin-4-yl)piperidin-1-yl)sulfonyl)cyclobutanecarboxylic Acid], the CC50 at 6 days in data set [1] was 39600 nM. In the data set with HBV, the half-maximal effective concentration (EC50) came to 30 nM. The matching figures for `COC(=O)C1=C([C@H]2CC[C@H](NS(N)(=O)=O)CC2)NC(c2nccs2)=NC1c1ccc(F)c(F)c1Cl` (relative stereo) [Compound 238, (trans)-Methyl 4-(2-chloro-3,4-difluorophenyl)-6-(4-(sulfamoylamino)cyclohexyl)-2-(thiazol-2-yl)-1,4-dihydropyrimidine-5-carboxylate]: 13400 nM and 53 nM.

`COC(=O)C1=C([C@H]2CC[C@H](NS(=O)(=O)CCCO)CC2)NC(c2nccs2)=NC1c1ccc(F)c(F)c1Cl` (relative stereo) [Compound 253B, (trans)-Methyl 4-(2-chloro-3,4-difluorophenyl)-6-(4-(3-hydroxypropylsulfonamido)cyclohexyl)-2-(thiazol-2-yl)-1,4-dihydropyrimidine-5-carboxylate] registered a CC50 at 6 days in data set [1] of 13700 nM. In the data set on HBV, the half-maximal effective concentration (EC50) was 8 nM. `CCOC(=O)C1=C([C@@H]2C[C@H](NS(C)(=O)=O)CO2)NC(c2nccs2)=NC1c1cccc(F)c1Cl` (relative stereo) [Compound 261, (cis)-Ethyl 4-(2-chloro-3-fluorophenyl)-6-(4-(methylsulfonamido)-tetrahydrofuran-2-yl)-2-(thiazol-2-yl)-1,4-dihydropyrimidine-5-carboxylate] gave a CC50 at 6 days in data set [1] of 37500 nM. In the data set on HBV, the EC50 is 142 nM. The compound `CCOC(=O)C1=C([C@@H]2C[C@H](NC(C)=O)CO2)NC(c2nccs2)=NC1c1cccc(F)c1Cl` (relative stereo) [Compound 262, (cis)-Ethyl 6-(4-acetamidotetrahydrofuran-2-yl)-4-(2-chloro-3-fluorophenyl)-2-(thiazol-2-yl)-1,4-dihydropyrimidine-5-carboxylate] had a CC50 at 6 days in data set [1] of 75800 nM. Also, the EC50 in the data set with HBV was 400 nM. Consider `COC(=O)C1=C(C2CCN(S(=O)(=O)[C@H]3C[C@H](C(=O)O)C3)CC2)NC(c2nccs2)=NC1c1ccc(F)cc1Cl` (relative stereo) [Compound 285A, trans-3-((4-(6-(2-Chloro-4-fluorophenyl)-5-(methoxycarbonyl)-2-(thiazol-2-yl)-3,6-dihydropyrimidin-4-yl)piperidin-1-yl)sulfonyl)cyclobutane-carboxylic Acid], for which, in data set [1], the cytotoxic concentration (CC50) at 6 days was determined as 67200 nM. The EC50 in the data set with HBV worked out at 24 nM.

With `COC(=O)C1=C(C2CCCC(C(=O)O)CC2)NC(c2nccs2)=NC1c1ccc(F)cc1Cl` (single isomer, unassigned) [Compound 95A, 4-(6-(2-Chloro-4-fluorophenyl)-5-(methoxycarbonyl)-2-(thiazol-2-yl)-3,6-dihydropyrimidin-4-yl)cycloheptanecarboxylic Acid], the EC50 with HBV amounted to 101 nM.
